{
  "source": "ChEMBL document CHEMBL5143694",
  "about": "“A novel survivin dimerization inhibitor without a labile hydrazone linker induces spontaneous apoptosis and synergizes with docetaxel in prostate cancer cells” (Bioorg Med Chem, 2022)",
  "key": {"PC-3 [1]": {"tested_on": "PC-3", "experiment": "Synergistic potentiation of docetaxel-induced cytotoxicity against human PC-3 cells assessed as combination index for reduction in cell viability at docetaxel/7F1 ratios ((1:1, 3:1, and 1:3 using their cytotoxic IC50) incubated for 72 hrs by methylene blue survival assay", "type": "functional"}, "LNCaP C4-2 [2]": {"tested_on": "LNCaP C4-2", "experiment": "Cytotoxicity against human LNCaP C4-2 cells assessed as reduction in cell viability incubated for 72 hrs by methylene blue survival assay", "type": "functional, cell-based", "conditions": "LNCaP C4-2, 72 h"}, "LNCaP C4-2 [3]": {"tested_on": "LNCaP C4-2", "experiment": "Induction of apoptosis in human LNCaP C4-2 cells assessed as increase in cleaved caspase-3 level at 200 nM incubated for 24 hrs by Western blot analysis", "type": "functional, cell-based"}, "PC-3 [4]": {"tested_on": "PC-3", "experiment": "Cytotoxicity against human PC-3 cells assessed as inhibition of cell survival at 2.5 uM incubated for 72 hrs by methylene blue survival assay", "type": "functional"}, "PC-3 [5]": {"tested_on": "PC-3", "experiment": "Induction of apoptosis in human PC-3 cells at 200 nM incubated for 24 hrs by annexin V-FITC and propidium iodide staining based flow cytometry", "type": "functional"}, "[6]": {"biological_target": "Baculoviral IAP repeat-containing protein 5 (Homo sapiens) (UniProt O15392)", "sequence (O15392 whole entry, the tested form may be a part)": "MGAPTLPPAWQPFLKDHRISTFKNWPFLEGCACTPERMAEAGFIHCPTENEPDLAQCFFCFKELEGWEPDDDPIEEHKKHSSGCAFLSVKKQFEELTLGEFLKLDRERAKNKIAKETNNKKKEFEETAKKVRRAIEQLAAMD", "experiment": "Inhibition of survivin dimerization in human PC-3 cells assessed as survivin degradation at 1 uM incubated for 24 hrs by Western blot analysis", "type": "cell-based"}, "[7]": {"biological_target": "Baculoviral IAP repeat-containing protein 5 (Homo sapiens) (UniProt O15392)", "experiment": "Inhibition of survivin-GAL4-DBD dimerization (unknown origin) expressed in human LNCaP C4-2 cells incubated for 24 hrs by SEAP reporter based mammalian two hybrid assay", "type": "cell-based"}, "LNCaP C4-2 [8]": {"tested_on": "LNCaP C4-2", "experiment": "Synergistic potentiation of docetaxel-induced cytotoxicity against human LNCaP C4-2 cells assessed as combination index for reduction in cell viability at docetaxel/7F1 ratios ((1:1, 3:1, and 1:3 using their cytotoxic IC50) incubated for 72 hrs by methylene blue survival assay", "type": "functional"}, "PC-3 [9]": {"tested_on": "PC-3", "experiment": "Cytotoxicity against human PC-3 cells assessed as reduction in cell viability incubated for 72 hrs by methylene blue survival assay", "type": "functional, cell-based", "conditions": "PC-3, 72 h"}, "LNCaP C4-2 [10]": {"tested_on": "LNCaP C4-2", "experiment": "Cytotoxicity against human LNCaP C4-2 cells assessed as inhibition of cell survival at 2.5 uM incubated for 72 hrs by methylene blue survival assay", "type": "functional"}, "PC-3 [11]": {"tested_on": "PC-3", "experiment": "Induction of apoptosis in human PC-3 cells assessed as increase in cleaved caspase-3 level at 200 nM incubated for 24 hrs by Western blot analysis", "type": "functional, cell-based"}, "[12]": {"biological_target": "Baculoviral IAP repeat-containing protein 5 (Homo sapiens) (UniProt O15392)", "experiment": "Inhibition of survivin dimerization in human PC-3 cells assessed as survivin degradation at 500 nM incubated for 24 hrs by Western blot analysis", "type": "cell-based"}, "LNCaP C4-2 [13]": {"tested_on": "LNCaP C4-2", "experiment": "Induction of apoptosis in human LNCaP C4-2 cells at 200 nM incubated for 24 hrs by annexin V-FITC and propidium iodide staining based flow cytometry", "type": "functional"}, "LNCaP C4-2 [14]": {"tested_on": "LNCaP C4-2", "experiment": "Cytotoxicity against human LNCaP C4-2 cells with empty vector-transfection assessed as reduction in cell viability incubated for 72 hrs by methylene blue survival assay", "type": "functional, cell-based", "conditions": "LNCaP C4-2, 72 h"}, "[15]": {"biological_target": "Baculoviral IAP repeat-containing protein 5 (Homo sapiens) (UniProt O15392)", "experiment": "Inhibition of survivin dimerization in human LNCaP C4-2 cells assessed as survivin degradation at 500 nM incubated for 24 hrs by Western blot analysis", "type": "cell-based"}, "LNCaP C4-2 [16]": {"tested_on": "LNCaP C4-2", "experiment": "Cytotoxicity against human LNCaP C4-2 cells with survivin overexpression assessed as reduction in cell viability incubated for 72 hrs by methylene blue survival assay", "type": "functional, cell-based", "conditions": "LNCaP C4-2, 72 h"}, "[17]": {"biological_target": "Baculoviral IAP repeat-containing protein 5 (Homo sapiens) (UniProt O15392)", "experiment": "Inhibition of survivin dimerization in human LNCaP C4-2 cells assessed as survivin degradation at 1 uM incubated for 24 hrs by Western blot analysis", "type": "cell-based"}},
  "note": "Active and inactive are the calls of the source. No cut-off for these calls is given here.",
  "data": [
    {"molecule": "O=C1c2ccccc2-c2nc3nonc3nc21", "values": [
      {"measurement": "CI", "setting": "PC-3 [1]", "result": 0.025},
      {"measurement": "IC50", "setting": "LNCaP C4-2 [2]", "result": 0.17, "unit": "µM"},
      {"measurement": "Activity", "setting": "LNCaP C4-2 [3]", "result": "Active"},
      {"measurement": "inhibition at 2.5 µM", "setting": "PC-3 [4]", "result": "> 80", "unit": "%"},
      {"measurement": "Activity", "setting": "PC-3 [5]", "result": 20, "unit": "%"},
      {"measurement": "inhibition", "setting": "[6]", "result": "Active"},
      {"measurement": "inhibition", "setting": "[7]", "result": "Active"},
      {"measurement": "CI", "setting": "LNCaP C4-2 [8]", "result": 0.025},
      {"measurement": "IC50", "setting": "PC-3 [9]", "result": 0.16, "unit": "µM"},
      {"measurement": "inhibition at 2.5 µM", "setting": "LNCaP C4-2 [10]", "result": 80, "unit": "%"},
      {"measurement": "Activity", "setting": "PC-3 [11]", "result": "Active"},
      {"measurement": "inhibition", "setting": "[12]", "result": "Active"},
      {"measurement": "Activity", "setting": "LNCaP C4-2 [13]", "result": 20, "unit": "%"},
      {"measurement": "IC50", "setting": "LNCaP C4-2 [14]", "result": 0.2, "unit": "µM"},
      {"measurement": "inhibition", "setting": "[15]", "result": "Active"},
      {"measurement": "IC50", "setting": "LNCaP C4-2 [16]", "result": 0.95, "unit": "µM"},
      {"measurement": "inhibition", "setting": "[17]", "result": "Active"}
    ]},
    {"molecule": "Nc1nonc1C(=O)N/N=C1\\c2ccccc2-c2nc3nonc3nc21", "values": [
      {"measurement": "IC50", "setting": "LNCaP C4-2 [2]", "result": 2.47, "unit": "µM"},
      {"measurement": "inhibition at 2.5 µM", "setting": "PC-3 [4]", "result": 50, "unit": "%"},
      {"measurement": "inhibition", "setting": "[6]", "result": "Active"},
      {"measurement": "inhibition", "setting": "[7]", "result": "Active"},
      {"measurement": "IC50", "setting": "PC-3 [9]", "result": 2.99, "unit": "µM"},
      {"measurement": "inhibition at 2.5 µM", "setting": "LNCaP C4-2 [10]", "result": 50, "unit": "%"},
      {"measurement": "inhibition", "setting": "[17]", "result": "Active"}
    ]}
  ]
}
